{"source": "ChEMBL document CHEMBL5625222", "about": "“Design, synthesis, and biological evaluation of 1,6-naphthyridine-2-one derivatives as novel FGFR4 inhibitors for the treatment of colorectal cancer” (Eur J Med Chem, 2023)", "key": {"HCT-116 [1]": {"system": "HCT-116", "experiment": "Antiproliferative activity against human HCT-116 cells assessed as inhibition of colony formation incubated for 2 weeks by crystal violet staining method", "assay_type": "functional, cell-based"}, "RKO [2]": {"system": "RKO", "experiment": "Induction of cell cycle arrest in human RKO cells assessed as accumulation of cells at G2/M phase incubated for 48 hrs by propidium iodide staining based flow cytometry", "assay_type": "functional"}, "HCT-116 [3]": {"system": "HCT-116", "experiment": "Antitumor activity against human HCT-116 cells xenografted in BALB/c mouse assessed as upregulation of E-cad expression in tumor at 10 mg/kg,ip administrated for 2 weeks by Western blotting analysis", "assay_type": "functional, organism-based"}, "[4]": {"experiment": "Toxicity in BALB/c mouse xenografted with human HCT-116 cells assessed as change in heart weight at 20 mg/kg,ip administrated for 2 weeks", "assay_type": "organism-based", "conditions": "in vivo, 336 h"}, "HCT-116 [5]": {"system": "HCT-116", "experiment": "Induction of cell cycle arrest in human HCT-116 cells assessed as accumulation of cells at G2/M phase incubated for 48 hrs by propidium iodide staining based flow cytometry", "assay_type": "functional"}, "RKO [6]": {"system": "RKO", "experiment": "Anti-migration activity in human RKO cells assessed as upregulation of E-cad expression by Western blotting analysis", "assay_type": "functional, cell-based"}, "[7]": {"experiment": "Toxicity in BALB/c mouse xenografted with human HCT-116 cells assessed as change in serum AST level at 20 mg/kg,ip administrated for 2 weeks", "assay_type": "organism-based", "conditions": "in vivo, 336 h"}, "SW480 [8]": {"system": "SW480", "experiment": "Induction of cell cycle arrest in human SW480 cells assessed as downregulation of CDC2 expression at 1.5 to 6 uM by immunoblotting analysis", "assay_type": "functional, cell-based", "conditions": "dose 1.5-6 µM"}, "HCT-116 [9]": {"system": "HCT-116", "experiment": "Antitumor activity against human HCT-116 cells xenografted in BALB/c mouse assessed as downregulation of FAK phosphorylation in tumor at 10 mg/kg,ip administrated for 2 weeks by Western blotting analysis", "assay_type": "functional, organism-based"}, "[10]": {"experiment": "Toxicity in BALB/c mouse xenografted with human HCT-116 cells assessed as change in body weight at 20 mg/kg,ip administrated for 2 weeks", "assay_type": "organism-based", "conditions": "in vivo, 336 h"}, "RKO [11]": {"system": "RKO", "experiment": "Anti-migration activity in human RKO cells assessed as change in FAK expression at 3 to 12 uM by Western blotting analysis", "assay_type": "functional, cell-based", "conditions": "dose 3-12 µM"}, "RKO [12]": {"system": "RKO", "experiment": "Anti-migration activity in human RKO cells assessed as change in FAK distribution at 3 to 12 uM by immunofluorescence assay", "assay_type": "functional, cell-based", "conditions": "dose 3-12 µM"}, "HCT-116 [13]": {"system": "HCT-116", "experiment": "Anti-migration activity in human HCT-116 cells assessed as loss of actin cytoskeletal fibers at 3 to 12 uM by immunofluorescence assay", "assay_type": "functional, cell-based", "conditions": "dose 3-12 µM"}, "[14]": {"experiment": "Toxicity in BALB/c mouse xenografted with human HCT-116 cells assessed as histopathological change in liver at 20 mg/kg,ip administrated for 2 weeks by hematoxylin and eosin staining based analysis", "assay_type": "organism-based", "conditions": "in vivo, 336 h"}, "RKO [15]": {"system": "RKO", "experiment": "Antiproliferative activity against human RKO cells assessed as inhibition of colony formation incubated for 2 weeks by crystal violet staining method", "assay_type": "functional, cell-based"}, "[16]": {"experiment": "Toxicity in BALB/c mouse xenografted with human HCT-116 cells assessed as change in serum ALT level at 20 mg/kg,ip administrated for 2 weeks", "assay_type": "organism-based", "conditions": "in vivo, 336 h"}, "HCT-116 [17]": {"system": "HCT-116", "experiment": "Antitumor activity against human HCT-116 cells xenografted in BALB/c mouse assessed as downregulation of FAK expression in tumor at 10 mg/kg,ip administrated for 2 weeks by Western blotting analysis", "assay_type": "functional, organism-based"}, "[18]": {"experiment": "Toxicity in BALB/c mouse xenografted with human HCT-116 cells assessed as change in serum ALT level at 10 mg/kg,ip administrated for 2 weeks", "assay_type": "organism-based", "conditions": "in vivo, 336 h"}, "HCT-116 [19]": {"system": "HCT-116", "experiment": "Antitumor activity against human HCT-116 cells xenografted in BALB/c mouse assessed as decrease in FAK expression in tumor tissue at ip administrated for 2 weeks by immunohistochemical analysis", "assay_type": "functional, organism-based"}, "[20]": {"experiment": "Toxicity in ICR mouse assessed as change in lung weight at 20 mg/kg,po administrated for 1 week", "assay_type": "organism-based", "conditions": "in vivo, 168 h, time 1 weeks"}, "BaF3": {"system": "BaF3", "experiment": "Antiproliferative activity against mouse BaF3 transfected with FGFR4 assessed as inhibition of cell growth incubated for 72 hrs by CCK-8 assay", "assay_type": "toxicity, cell-based", "conditions": "BaF3, 72 h"}, "[21]": {"experiment": "Toxicity in BALB/c mouse xenografted with human HCT-116 cells assessed as change in serum creatinine level at 10 mg/kg,ip administrated for 2 weeks", "assay_type": "organism-based", "conditions": "in vivo, 336 h"}, "HCT-116 [22]": {"system": "HCT-116", "experiment": "Antitumor activity against human HCT-116 cells xenografted in BALB/c mouse assessed as downregulation of N-cad expression in tumor at 20 mg/kg,ip administrated for 2 weeks by Western blotting analysis", "assay_type": "functional, organism-based"}, "SW480 [23]": {"system": "SW480", "experiment": "Anti-migration activity in human SW480 cells assessed as downregulation of FAK phosphorylation by Western blotting analysis", "assay_type": "functional, cell-based"}, "[24]": {"experiment": "Toxicity in ICR mouse assessed as change in heart weight at 60 mg/kg,po administrated for 1 week", "assay_type": "organism-based", "conditions": "in vivo, 168 h, time 1 weeks"}, "HCT-116 [25]": {"system": "HCT-116", "experiment": "Antitumor activity against human HCT-116 cells xenografted in BALB/c mouse assessed as upregulation of E-cad expression in tumor at 20 mg/kg,ip administrated for 2 weeks by Western blotting analysis", "assay_type": "functional, organism-based"}, "HCT-116 [26]": {"system": "HCT-116", "experiment": "Anti-migration activity in human HCT-116 cells assessed as change in N-cad expression at 3 to 12 uM by Western blotting analysis", "assay_type": "functional, cell-based", "conditions": "dose 3-12 µM"}}, "note": "Activity calls are given as the source filed them. No cut-off for these calls is given here."}
{"molecule": "C=CC(=O)NCCCn1c(=O)c(-c2c(Cl)c(OC)cc(OC)c2Cl)cc2cnc(Nc3c(C)cccc3NC(=O)C=C)cc21", "values": [{"measurement": "Activity", "setting": "HCT-116 [1]", "result": "Dose-Dependent Effect"}, {"measurement": "Activity", "setting": "RKO [2]", "result": "Dose-Dependent Effect"}, {"measurement": "Activity", "setting": "HCT-116 [3]", "result": "Active"}, {"measurement": "Activity", "setting": "[4]", "result": "Non-Toxic"}, {"measurement": "Activity", "setting": "HCT-116 [5]", "result": "Dose-Dependent Effect"}, {"measurement": "Activity", "setting": "RKO [6]", "result": "Dose-Dependent Effect"}, {"measurement": "Activity", "setting": "[7]", "result": "Non-Toxic"}, {"measurement": "Activity", "setting": "SW480 [8]", "result": "Active"}, {"measurement": "Activity", "setting": "HCT-116 [9]", "result": "Active"}, {"measurement": "Activity", "setting": "[10]", "result": "Non-Toxic"}, {"measurement": "Activity", "setting": "RKO [11]", "result": "inactive"}, {"measurement": "Activity", "setting": "RKO [12]", "result": "Active"}, {"measurement": "Activity", "setting": "HCT-116 [13]", "result": "Active"}, {"measurement": "Activity", "setting": "[14]", "result": "Non-Toxic"}, {"measurement": "Activity", "setting": "RKO [15]", "result": "Dose-Dependent Effect"}, {"measurement": "Activity", "setting": "[16]", "result": "Non-Toxic"}, {"measurement": "Activity", "setting": "HCT-116 [17]", "result": "Active"}, {"measurement": "Activity", "setting": "[18]", "result": "Non-Toxic"}, {"measurement": "Activity", "setting": "HCT-116 [19]", "result": "Dose-Dependent Effect"}, {"measurement": "Activity", "setting": "[20]", "result": "Non-Toxic"}, {"measurement": "IC50", "setting": "BaF3", "result": 9.48, "unit": "nM"}, {"measurement": "Activity", "setting": "[21]", "result": "Non-Toxic"}, {"measurement": "Activity", "setting": "HCT-116 [22]", "result": "Active"}, {"measurement": "Activity", "setting": "SW480 [23]", "result": "Dose-Dependent Effect"}, {"measurement": "Activity", "setting": "[24]", "result": "Non-Toxic"}, {"measurement": "Activity", "setting": "HCT-116 [25]", "result": "Active"}, {"measurement": "Activity", "setting": "HCT-116 [26]", "result": "inactive"}]}
